Test results taken from patent US12357711B2, “PSMA binding dual mode radiotracer and therapeutic” (Technische Universität München, priority 2019, dated 2025).
“And” between values parts separate entries of the source, which are not always exact repeats. Equal values may be shown once.

Tested on: patients
Assay: Human biodistribution and uptake in tumor lesions (PET/CT, SUV)
Assay type: in vivo
Details: for ratio SUVmax to background, mean / ratio SUVmean to background, mean: human PET/CT, background gluteal muscle; for SUVmax background, max / SUVmax background, mean / SUVmax background, min / SUVmean background, max / SUVmean background, mean / SUVmean background, min: gluteal muscle; for SUVmax bone, max / SUVmax bone, mean / SUVmax bone, min / SUVmean bone, max / SUVmean bone, mean / SUVmean bone, min: non-diseased bone
Method: Human biodistribution was estimated by analysing clinical ^18F-rhPSMA-7- and ^18F-rhPSMA-7.3-PET/CT exams in 47 and 32 patients, respectively.
The mean and maximum standardized uptake values (SUVmean/SUVmax) were determined for background (gluteal muscle), normal organs (salivary glands, blood pool, lung, liver, spleen, pancreas, duodenum, kidney, bladder, bone) and three representative tumor lesions. Tumor uptake was analyzed in 89 lesions (26 primary tumors/local recurrences, 23 bone, 38 lymph node and 2 visceral metastases) and 63 lesions (14 primary tumors/local recurrences, 30 bone, 18 lymph node and 1 visceral metastases) for ^18F-rhPSMA-7 and ^18F-rhPSMA-7.3, respectively.
Organ-background and Tumor-background ratios were calculated.

[1] = clinical PET/CT, listed as 18F-rhPSMA-7.3

CC(C)(C)[Si](F)(c1ccc(C(=O)NC[C@@H](NC(=O)CC[C@@H](C(=O)O)N2CCN(CC(=O)[O-])CCN(CC(=O)[O-])CCN(CC(=O)[O-])CC2)C(=O)N[C@H](CCCCNC(=O)CCC(=O)NCCC[C@@H](NC(=O)CC[C@H](NC(=O)N[C@@H](CCC(=O)O)C(=O)O)C(=O)O)C(=O)O)C(=O)O)cc1)C(C)(C)C.[Ga+3] [rhPSMA7.3, [^19F][^natGa]D-Dap-S-DOTAGA-rhPSMA7]
ratio SUVmax to background, mean (bladder): 3.1 | ratio SUVmean to background, mean (bladder): 3.1 | ratio SUVmax to background, mean (bloodpool): 2.8 | ratio SUVmean to background, mean (bloodpool): 2.9 | ratio SUVmax to background, mean (bone): 2.0 | ratio SUVmean to background, mean (bone): 2.1 | SUVmax bladder, max (clinical PET/CT): 6.0 | SUVmax bladder, mean (clinical PET/CT): 3.1 | SUVmax bladder, min (clinical PET/CT): 1.1 | SUVmax bloodpool, max (clinical PET/CT): 3.9 | SUVmax bloodpool, mean (clinical PET/CT): 2.8 | SUVmax bloodpool, min (clinical PET/CT): 1.9 | SUVmax duodenum, max (clinical PET/CT): 32.2 | SUVmax duodenum, mean (clinical PET/CT): 16.4 | SUVmax duodenum, min (clinical PET/CT): 6.1 | SUVmax kidney, max (clinical PET/CT): 99.9 | SUVmax kidney, mean (clinical PET/CT): 51.9 | SUVmax kidney, min (clinical PET/CT): 30.9 | SUVmax liver, max (clinical PET/CT): 15.4 | SUVmax liver, mean (clinical PET/CT): 9.7 | SUVmax liver, min (clinical PET/CT): 4.6 | SUVmax lungs, max (clinical PET/CT): 1.9 | SUVmax lungs, mean (clinical PET/CT): 1.1 | SUVmax lungs, min (clinical PET/CT): 0.7 | SUVmax pancreas, max (clinical PET/CT): 7.8 | SUVmax pancreas, mean (clinical PET/CT): 4.2 | SUVmax pancreas, min (clinical PET/CT): 2.4 | SUVmax parotic gland, max (clinical PET/CT): 38.3 | SUVmax parotic gland, mean (clinical PET/CT): 24.6 | SUVmax parotic gland, min (clinical PET/CT): 11.2 | SUVmax spleen, max (clinical PET/CT): 22.5 | SUVmax spleen, mean (clinical PET/CT): 11.4 | SUVmax spleen, min (clinical PET/CT): 5.0 | SUVmax submandibular gland, max (clinical PET/CT): 47.4 | SUVmax submandibular gland, mean (clinical PET/CT): 28.4 | SUVmax submandibular gland, min (clinical PET/CT): 14.6 | SUVmean bladder, max (clinical PET/CT): 4.1 | SUVmean bladder, min (clinical PET/CT): 0.7 | SUVmean bloodpool, max (clinical PET/CT): 2.5 | SUVmean bloodpool, min (clinical PET/CT): 1.3 | SUVmean duodenum, max (clinical PET/CT): 23.0 | SUVmean duodenum, mean (clinical PET/CT): 11.0 | SUVmean duodenum, min (clinical PET/CT): 3.0 | SUVmean kidney, max (clinical PET/CT): 70.6 | SUVmean kidney, mean (clinical PET/CT): 35.5 | SUVmean kidney, min (clinical PET/CT): 20.7 | SUVmean liver, max (clinical PET/CT): 12.3 | SUVmean liver, mean (clinical PET/CT): 7.3 | SUVmean liver, min (clinical PET/CT): 3.2 | SUVmean lungs, max (clinical PET/CT): 1.1 | SUVmean lungs, mean (clinical PET/CT): 0.7 | SUVmean lungs, min (clinical PET/CT): 0.4 | SUVmean pancreas, max (clinical PET/CT): 5.2 | SUVmean pancreas, mean (clinical PET/CT): 2.8 | SUVmean pancreas, min (clinical PET/CT): 1.6 | SUVmean parotic gland, max (clinical PET/CT): 25.0 | SUVmean parotic gland, mean (clinical PET/CT): 16.0 | SUVmean parotic gland, min (clinical PET/CT): 8.2 | SUVmean spleen, max (clinical PET/CT): 17.9 | SUVmean spleen, mean (clinical PET/CT): 8.5 | SUVmean spleen, min (clinical PET/CT): 3.7 | SUVmean submandibular gland, max (clinical PET/CT): 33.4 | SUVmean submandibular gland, mean (clinical PET/CT): 19.6 | SUVmean submandibular gland, min (clinical PET/CT): 10.4 | tracer retention in the bladder compared with ^18F-rhPSMA-7 (clinical PET/CT): significantly lower | uptake in tumor lesions compared with ^18F-rhPSMA-7 (clinical PET/CT): significantly higher | SUVmax background, max (clinical PET/CT): 1.7 | SUVmax background, mean (clinical PET/CT): 1.0 | SUVmax background, min (clinical PET/CT): 0.6 | SUVmean background, max (clinical PET/CT): 1.1 | SUVmean background, mean (clinical PET/CT): 0.7 | SUVmean background, min (clinical PET/CT): 0.4 | SUVmax bone, max (clinical PET/CT): 3.4 | SUVmax bone, mean (clinical PET/CT): 2.1 | SUVmax bone, min (clinical PET/CT): 1.1 | SUVmean bone, max (clinical PET/CT): 2.2 | SUVmean bone, mean (clinical PET/CT): 1.3 | SUVmean bone, min (clinical PET/CT): 0.7 | SUVmax tumor, max (clinical PET/CT, tumor lesions): 316.0 | SUVmax tumor, mean (clinical PET/CT, tumor lesions): 44.0 | SUVmax tumor, min (clinical PET/CT, tumor lesions): 2.4 | SUVmean tumor, max (clinical PET/CT, tumor lesions): 224.1 | SUVmean tumor, min (clinical PET/CT, tumor lesions): 1.6 | SUVmean tumor, mean (clinical PET/CT, tumor lesions, listed as 18F-rhPSMA-7.3): 32.5±42.7 and 32.5 | SUVmean bladder, mean [1]: 2.0 and 2.0±0.8 | SUVmean bloodpool, mean [1]: 1.9 and 1.8 | ratio SUVmax to background, mean (duodenum): 16.2 | ratio SUVmean to background, mean (duodenum): 17.1 | ratio SUVmax to background, mean (kidney): 51.8 | ratio SUVmean to background, mean (kidney): 55.6 | ratio SUVmax to background, mean (liver): 9.7 | ratio SUVmean to background, mean (liver): 11.4 | ratio SUVmax to background, mean (lungs): 1.0 | ratio SUVmean to background, mean (lungs): 1.0 | ratio SUVmax to background, mean (pancreas): 4.1 | ratio SUVmean to background, mean (pancreas): 4.4 | ratio SUVmax to background, mean (parotid gland): 24.7 | ratio SUVmean to background, mean (parotid gland): 25.2 | ratio SUVmax to background, mean (spleen): 11.4 | ratio SUVmean to background, mean (spleen): 13.3 | ratio SUVmax to background, mean (submandibular gland): 28.2 | ratio SUVmean to background, mean (submandibular gland): 30.6 | ratio SUVmax to background, mean (tumor lesions): 43.6 | ratio SUVmean to background, mean (tumor lesions): 50.8

[^19F][^natGa]D/L-Dap-R/S-DOTAGA-rhPSMA7 [rhPSMA7-rac]
SUVmax bladder, max (clinical PET/CT): 112.0 | SUVmax bladder, mean (clinical PET/CT): 8.5 | SUVmax bladder, min (clinical PET/CT): 0.5 | SUVmax bloodpool, max (clinical PET/CT): 3.9 | SUVmax bloodpool, mean (clinical PET/CT): 2.4 | SUVmax bloodpool, min (clinical PET/CT): 1.6 | SUVmax duodenum, max (clinical PET/CT): 32.7 | SUVmax duodenum, mean (clinical PET/CT): 14.8 | SUVmax duodenum, min (clinical PET/CT): 2.8 | SUVmax kidney, max (clinical PET/CT): 75.2 | SUVmax kidney, mean (clinical PET/CT): 44.8 | SUVmax kidney, min (clinical PET/CT): 19.1 | SUVmax liver, max (clinical PET/CT): 25.2 | SUVmax liver, mean (clinical PET/CT): 9.5 | SUVmax liver, min (clinical PET/CT): 4.5 | SUVmax lungs, max (clinical PET/CT): 3.1 | SUVmax lungs, mean (clinical PET/CT): 1.1 | SUVmax lungs, min (clinical PET/CT): 0.5 | SUVmax pancreas, max (clinical PET/CT): 7.9 | SUVmax pancreas, mean (clinical PET/CT): 3.7 | SUVmax pancreas, min (clinical PET/CT): 1.8 | SUVmax parotic gland, max (clinical PET/CT): 42.3 | SUVmax parotic gland, mean (clinical PET/CT): 23.8 | SUVmax parotic gland, min (clinical PET/CT): 8.2 | SUVmax spleen, max (clinical PET/CT): 21.0 | SUVmax spleen, mean (clinical PET/CT): 11.8 | SUVmax spleen, min (clinical PET/CT): 4.7 | SUVmax submandibular gland, max (clinical PET/CT): 43.8 | SUVmax submandibular gland, mean (clinical PET/CT): 27.0 | SUVmax submandibular gland, min (clinical PET/CT): 10.1 | SUVmean bladder, max (clinical PET/CT): 85.7 | SUVmean bladder, min (clinical PET/CT): 0.3 | SUVmean bloodpool, max (clinical PET/CT): 17.0 | SUVmean bloodpool, mean (clinical PET/CT): 2.0 | SUVmean bloodpool, min (clinical PET/CT): 1.1 | SUVmean duodenum, max (clinical PET/CT): 23.9 | SUVmean duodenum, mean (clinical PET/CT): 10.9 | SUVmean duodenum, min (clinical PET/CT): 1.9 | SUVmean kidney, max (clinical PET/CT): 54.7 | SUVmean kidney, mean (clinical PET/CT): 32.4 | SUVmean kidney, min (clinical PET/CT): 13.2 | SUVmean liver, max (clinical PET/CT): 17.7 | SUVmean liver, mean (clinical PET/CT): 7.0 | SUVmean liver, min (clinical PET/CT): 3.2 | SUVmean lungs, max (clinical PET/CT): 2.0 | SUVmean lungs, mean (clinical PET/CT): 0.7 | SUVmean lungs, min (clinical PET/CT): 0.3 | SUVmean pancreas, max (clinical PET/CT): 5.5 | SUVmean pancreas, mean (clinical PET/CT): 2.5 | SUVmean pancreas, min (clinical PET/CT): 1.3 | SUVmean parotic gland, max (clinical PET/CT): 32.7 | SUVmean parotic gland, mean (clinical PET/CT): 16.9 | SUVmean parotic gland, min (clinical PET/CT): 5.5 | SUVmean spleen, max (clinical PET/CT): 17.1 | SUVmean spleen, mean (clinical PET/CT): 9.1 | SUVmean spleen, min (clinical PET/CT): 3.4 | SUVmean submandibular gland, max (clinical PET/CT): 29.7 | SUVmean submandibular gland, mean (clinical PET/CT): 19.6 | SUVmean submandibular gland, min (clinical PET/CT): 7.0 | SUVmax background, max (clinical PET/CT): 1.8 | SUVmax background, mean (clinical PET/CT): 1.0 | SUVmax background, min (clinical PET/CT): 0.6 | SUVmean background, max (clinical PET/CT): 1.2 | SUVmean background, mean (clinical PET/CT): 0.6 | SUVmean background, min (clinical PET/CT): 0.4 | SUVmax bone, max (clinical PET/CT): 3.1 | SUVmax bone, mean (clinical PET/CT): 1.7 | SUVmax bone, min (clinical PET/CT): 0.8 | SUVmean bone, max (clinical PET/CT): 2.1 | SUVmean bone, mean (clinical PET/CT): 1.1 | SUVmean bone, min (clinical PET/CT): 0.6 | SUVmax tumor, max (clinical PET/CT, tumor lesions): 167.2 | SUVmax tumor, mean (clinical PET/CT, tumor lesions): 27.6 | SUVmax tumor, min (clinical PET/CT, tumor lesions): 3.1 | SUVmean tumor, max (clinical PET/CT, tumor lesions): 115.7 | SUVmean tumor, min (clinical PET/CT, tumor lesions): 2.1 | SUVmean tumor, mean (clinical PET/CT, tumor lesions, listed as 18F-rhPSMA-7): 20.0±20.2 and 20.0 | SUVmean bladder, mean (clinical PET/CT, listed as 18F-rhPSMA-7): 6.3
